In patent publication US20240174637A1, “DEGRADERS OF GRK2 AND USES THEREOF” (Sonata Therapeutics, Inc., priority 2021, published 2024) one finds IC50 and inhibition data, which are given here for two compounds.

Where only a bound is given, the exact number is not on record here.

Test [1] deals with T1, GRK2 (Homo sapiens, UniProt P25098).
T1 sequence (P25098 1-689): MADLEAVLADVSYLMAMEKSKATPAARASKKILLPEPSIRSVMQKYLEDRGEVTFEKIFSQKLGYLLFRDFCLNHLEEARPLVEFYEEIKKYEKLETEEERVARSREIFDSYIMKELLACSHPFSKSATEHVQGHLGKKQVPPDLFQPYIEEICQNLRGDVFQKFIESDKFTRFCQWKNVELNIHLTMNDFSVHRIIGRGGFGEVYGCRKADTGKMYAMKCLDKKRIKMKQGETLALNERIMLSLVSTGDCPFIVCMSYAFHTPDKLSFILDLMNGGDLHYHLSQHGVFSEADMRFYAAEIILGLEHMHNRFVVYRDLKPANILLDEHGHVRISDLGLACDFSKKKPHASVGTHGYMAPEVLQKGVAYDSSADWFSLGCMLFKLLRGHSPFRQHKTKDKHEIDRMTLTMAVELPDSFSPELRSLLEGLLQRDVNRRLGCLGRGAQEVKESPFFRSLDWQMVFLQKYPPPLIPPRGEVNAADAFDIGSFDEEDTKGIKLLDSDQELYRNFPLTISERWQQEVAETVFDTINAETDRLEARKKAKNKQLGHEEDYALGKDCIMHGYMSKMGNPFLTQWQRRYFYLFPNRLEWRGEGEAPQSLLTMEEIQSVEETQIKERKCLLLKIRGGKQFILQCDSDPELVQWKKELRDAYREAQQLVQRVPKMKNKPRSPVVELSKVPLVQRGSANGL
Briefly: ADPGlo GRK2 Inhibition Assay (Example 2). Format: biochemical. As to conditions: ADP-Glo, 10 μM ATP; read-out: ADP Glo Enzymatic GRK2 Assay: IC50 (nM) (Example 2). On the procedure: Assay: GRK2 (7.5 nM) was incubated with ATP (10 μM) and GRKtide (0.3 mg/mL) in 5 μL of assay buffer (see above) for 180 min at room temperature. HTS was performed using 1 μM compound. Compounds were dissolved in 100% DMSO, serially diluted tree-fold from 100 μM concentration to 46 nM and transferred (50 nL) into assay ready plate.
Materials: GRK2 was purchased from SignalChem (Cat #A14-10G, Lot #X645-3). Substrate GRKtide was from SignalChem (Cat #G46-58, Lot #R339-6). ADP-Glo Kinase Assay from Promega (Cat #V9102). Assay buffer consisted of 25 mM HEPES (pH7.5), 10 mM MgCl2, 0.01% Tween-20, 1 mM DDT. 384-well white plates were from Greiner […] (Item #784075).
HTS protocol: Take 384 well plate with 50 nL of compound in columns 3-22/DMSO solution 1-2,23-24. Add 2.5 μL assay buffer to columns 23 and 24 using Thermo Scientific Multidrop Combi Dispenser. Add 2.5 μL of 2× enzyme solution (15 nM in 1× assay buffer) using Thermo Scientific Multidrop Combi Reagent Dispenser to all columns except of 23 and 24. Incubate for 15 minutes. Fill plate with 2.5 μL of 2× substrate mix (20 μM ATP and 0.6 mg/mL GRKtide in 1× assay buffer) using Thermo Scientific Multidrop Combi Reagent Dispenser. Spin 15 seconds at 1000 rpm and incubate for 180 min at room temperature. Add 5 μL ADP-Glo reagent to all the wells. Spin 15 seconds at 1000 rpm and incubate for 40 min at room temperature. Add 10 μL Detection solution to all the wells. Incubate for 30 min at room temperature. Read plate in Luminescent mode on BMG PheraStar FSX (gain=3600).
Data Analysis: Data were analyzed in GraphPad Prism 8.0.2. Each HTS plate contains compounds in columns 3-22, controls (enzyme, no compound) in columns 1 and 2, and blanks (no enzyme) in columns 23 and 24. HTS percent inhibition was calculated for each compound from the signal in luminescence units and the mean of the plate controls and the mean of the plate blanks using the following equation: % Inhibition=100*(1−((signal−blank mean)/(control mean−blank mean))). At the final stage of data processing, we obtain dose-response curves, tables and SDF-files with the results of screening for each substance.
(In ADP-Glo the light output rises with the ADP produced.)

The next test deals with PAXF1657 KO Clone #4. In words: 7-day cellular proliferation assay (CellTiter-Glo), PAXF1657 KO Clone #4. Type of test: cell-based. As to conditions: 168 h, 7-day, read-out: 7-day proliferation assay: IC50 GeoMean (uM) [Cell Line: PAXF1657 KO Clone #4]. A digest of the protocol: (§1)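 Viability by CellTiter-Glo after 7 days at 37° C., with compound-containing media replaced on day 3. Cells (500/well, RPMI1640 + 10% FBS) were PAXF1657 pairs: GRK2 overexpression vs empty vector, or CRISPR GRK2 knockout vs non-targeting clones; doses 30 μM-0.0002 μM final, 10 points, 0.3% DMSO.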

In test [2] the target is T1, GRK2. In words: GRK2 Degradation Assay and Western Blot in PAXF1657 cells. Type of test: cell-based. Further details: endogenous in cells; host or cells: PAXF1657. The conditions noted are these: PAXF1657 EV, 24 hrs. A digest of the protocol: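 GRK2 degradation judged by immunoblot: NP40 lysates separated by SDS-PAGE and probed for GRK2 and β-actin, with HRP/ECL detection. Lysates came from PAXF1657 cells exposed to 0–10 μM compound for 6–24 h after reaching 70% confluency.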
Background: Immunoblotting shows a protein as a band on a membrane.

The next test has as its system PAXF1657 EV. In words: 7-day cellular proliferation assay (CellTiter-Glo), PAXF1657 EV. Type of test: cell-based. As to conditions: 168 h, 7-day, read-out: 7-day proliferation assay: IC50 GeoMean (uM) [Cell Line: PAXF1657 EV]. In outline: as §1
A general note: ATP-based viability assays read luminescence as a measure of living cells.

Turning to `Cn1c(CNc2cccc(C(=O)NCc3cccc(OCCCCCCOCCOCCOCCOCC(=O)Nc4cccc5c4CN(C4CCC(=O)NC4=O)C5=O)c3)c2)nnc1-c1ccncn1` (stereo not shown) [Compound D71], the IC50 at GRK2 [1] was less than 100 nM.
As to `Cn1c(CNc2cccc(C(=O)NCc3cccc(OCCCCCCOCCOCC(=O)Nc4cccc5c4CN(C4CCC(=O)NC4=O)C5=O)c3)c2)nnc1-c1ccncn1` (stereo not shown) [Compound D72], the IC50 in the test on PAXF1657 KO Clone #4 is 1 to 10 µM; on GRK2 [1], less than 100 nM; with PAXF1657 EV, 1 to 10 µM. The inhibition at 0.3 µM on GRK2 [2] (0.3 uM, read-out: % GRK2 degradation at 0.3 uM in PAXF1657 EV (24 hrs)) stood at 36%. Moreover, the inhibition at 1 µM at GRK2 [2] (1 uM, read-out: % GRK2 degradation at 1 uM in PAXF1657 EV (24 hrs)) amounted to 59%. Moreover, the inhibition at 3 µM on GRK2 [2] (3 uM, read-out: % GRK2 degradation at 3 uM in PAXF1657 EV (24 hrs)) was 64%.
